Source: patent publication US20090062294A1, “HETEROARYL-SUBSTITUTED UREA MODULATORS OF FATTY ACID AMIDE HYDROLASE” (priority 2007, published 2009)
pIC50: −log10 of the molar value. Counter-ions that a name gives are not always drawn.

Key:
rat FAAH = target: T1, rat FAAH (Rattus norvegicus, UniProt P97612); assay: Assay Method 2: FAAH assay, 3H-anandamide hydrolysis in homogenate of SK-N-MC cells transfected with rat FAAH; assay type: biochemical; details: average of results, > = solubility limit or highest concentration tested
T1 sequence (P97612 1-579): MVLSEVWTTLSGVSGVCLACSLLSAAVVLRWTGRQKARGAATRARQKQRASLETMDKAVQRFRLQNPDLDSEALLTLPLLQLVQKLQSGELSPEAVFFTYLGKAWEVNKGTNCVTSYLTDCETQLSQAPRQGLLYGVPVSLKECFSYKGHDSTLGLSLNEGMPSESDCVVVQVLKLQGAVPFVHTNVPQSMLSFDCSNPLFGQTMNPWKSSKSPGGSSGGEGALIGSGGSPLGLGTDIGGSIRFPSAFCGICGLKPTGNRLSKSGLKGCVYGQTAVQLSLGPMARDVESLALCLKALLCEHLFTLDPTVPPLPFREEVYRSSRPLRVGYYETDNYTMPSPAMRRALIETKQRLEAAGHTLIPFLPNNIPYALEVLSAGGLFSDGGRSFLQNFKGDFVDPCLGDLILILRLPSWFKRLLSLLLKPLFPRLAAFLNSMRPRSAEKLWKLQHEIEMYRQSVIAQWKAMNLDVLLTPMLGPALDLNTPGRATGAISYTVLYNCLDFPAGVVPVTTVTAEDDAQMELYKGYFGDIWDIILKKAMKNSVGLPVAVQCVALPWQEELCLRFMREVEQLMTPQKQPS
Procedure, shortened: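 Read-out is scintillation counting of [3H]-ethanolamine passing through activated charcoal, after 1 h at rt with 80 nM final [3H]-AEA. Enzyme source: lysate of G418-selected SK-N-MC clones expressing rat FAAH, homogenized in Tris/EDTA/glycerol/0.02% Triton buffer, pH 9.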

FAAH = target: T2, FAAH (Homo sapiens, UniProt O00519); assay: Assay Method 1: FAAH assay, 3H-anandamide hydrolysis in homogenate of T84 cells or SK-N-MC cells transfected with human FAAH; assay type: biochemical; details: average of results, > = solubility limit or highest concentration tested
T2 sequence (O00519 1-579): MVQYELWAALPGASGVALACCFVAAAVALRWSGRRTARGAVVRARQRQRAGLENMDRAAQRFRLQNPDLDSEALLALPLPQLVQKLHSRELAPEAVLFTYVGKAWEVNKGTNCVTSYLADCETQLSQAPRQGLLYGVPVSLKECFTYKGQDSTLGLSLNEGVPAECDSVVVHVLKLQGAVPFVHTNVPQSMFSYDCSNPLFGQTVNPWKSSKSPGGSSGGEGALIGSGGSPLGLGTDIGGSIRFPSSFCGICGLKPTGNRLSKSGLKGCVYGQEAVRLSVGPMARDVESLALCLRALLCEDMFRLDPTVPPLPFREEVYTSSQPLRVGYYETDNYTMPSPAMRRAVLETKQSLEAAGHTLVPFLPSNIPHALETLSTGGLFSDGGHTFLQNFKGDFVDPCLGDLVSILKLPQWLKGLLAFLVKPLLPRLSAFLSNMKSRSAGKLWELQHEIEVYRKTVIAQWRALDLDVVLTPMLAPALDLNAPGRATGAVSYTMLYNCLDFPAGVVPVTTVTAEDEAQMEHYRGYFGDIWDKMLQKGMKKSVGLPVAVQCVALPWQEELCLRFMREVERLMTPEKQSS
Procedure, shortened: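 Hydrolysis of ^3H-anandamide (80 nM final, added last) was measured over 1 h at rt, using test compound with homogenate of T84 cells or human FAAH-transfected SK-N-MC cells. The homogenization buffer was 125 mM Tris, 1 mM EDTA, 0.02% Triton X-100, pH 9. Unbound labelled ethanolamine was passed through charcoal filters and scintillation-counted.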

Row | pIC50 (rat FAAH) | pIC50 (FAAH) | Structure (SMILES)
1 | 5.74 | 5.92 | N#Cc1ccc(Oc2cccc(CN3CCN(C(=O)Nc4nn[nH]n4)CC3)c2)cc1C(F)(F)F [Example 170, 4-{3-[4-Cyano-3-(trifluoromethyl)phenoxy]benzyl}-N-1H-tetrazol-5-ylpiperazine-1-carboxamide]
2 | 7.46 | 6.70 | O=C(Nc1nnn[nH]1)N1CCN(Cc2cccc(Oc3ccc(C(F)(F)F)cc3)c2)CC1 [Example 171, N-1H-Tetrazol-5-yl-4-{3-[4-(trifluoromethyl)phenoxy]benzyl}piperazine-1-carboxamide]
3 | 8.00 | 7.30 | O=C(Nc1nnn[nH]1)N1CCN(Cc2cccc(Oc3ccc(SC(F)(F)F)cc3)c2)CC1 [Example 172, N-1H-Tetrazol-5-yl-4-(3-{4-[(trifluoromethyl)sulfanyl]phenoxy}benzyl)-piperazine-1-carboxamide]
4 | 6.70 | 6.65 | O=C(Nc1nnn[nH]1)N1CCN(Cc2cccc(Oc3cccc(OC(F)(F)F)c3)c2)CC1 [Example 173, N-1H-Tetrazol-5-yl-4-{3-[3-(trifluoromethoxy)phenoxy]benzyl}piperazine-1-carboxamide]
5 | 7.52 | 7.00 | O=C(Nc1nnn[nH]1)N1CCN(Cc2cccc(Oc3ccc(Cl)c(Cl)c3)c2)CC1 [Example 174, 4-[3-(3,4-Dichlorophenoxy)benzyl]-N-1H-tetrazol-5-ylpiperazine-1-carboxamide]
6 | 6.35 | 5.70 | O=C(Nc1nnn[nH]1)N1CCN(Cc2ccc3ccccc3c2)CC1 [Example 176, 4-(Naphthalen-2-ylmethyl)-N-1H-tetrazol-5-ylpiperazine-1-carboxamide]
7 | 5.77 | 5.30 | O=C(Nc1nn[nH]n1)N1CCN(Cc2ccc(Br)cc2)CC1 [Example 177, 4-(4-Bromo-benzyl)-piperazine-1-carboxylic acid (2H-tetrazol-5-yl)-amide]
8 | < 5.00 | < 5.00 | O=C(Nc1nn[nH]n1)N1CCN(Cc2ccc3cc[nH]c3c2)CC1 [Example 178, 4-(1H-Indol-6-ylmethyl)-piperazine-1-carboxylic acid (2H-tetrazol-5-yl)-amide]
9 | 5.92 | 5.80 | O=C(Nc1nn[nH]n1)N1CCN(Cc2cccc(OCc3ccccc3)c2)CC1 [Example 179, 4-(3-Benzyloxy-benzyl)-piperazine-1-carboxylic acid (2H-tetrazol-5-yl)-amide]
10 | 5.80 | 5.30 | O=C(Nc1nn[nH]n1)N1CCN(Cc2cccc(Oc3ccccc3)c2)CC1 [Example 181, 4-(3-Phenoxy-benzyl)-piperazine-1-carboxylic acid (2H-tetrazol-5-yl)-amide]
11 | 6.47 | 5.77 | O=C(Nc1nn[nH]n1)N1CCN(Cc2ccc(Cl)c(Cl)c2)CC1 [Example 182, 4-(3,4-Dichloro-benzyl)-piperazine-1-carboxylic acid (2H-tetrazol-5-yl)-amide]
12 | 6.37 | 5.85 | O=C(Nc1nn[nH]n1)N1CCN(Cc2cc3ccccc3s2)CC1 [Example 183, 4-Benzo[b]thiophen-2-ylmethyl-piperazine-1-carboxylic acid (2H-tetrazol-5-yl)-amide]
13 | 6.36 | 6.35 | O=C(Nc1nn[nH]n1)N1CCN(Cc2cccc(Oc3ccc(F)c(C(F)(F)F)c3)c2)CC1 [Example 185, 4-{3-[4-Fluoro-3-(trifluoromethyl)phenoxy]benzyl}-N-2H-tetrazol-5-ylpiperazine-1-carboxamide]
14 | 6.80 | 6.48 | O=C(Nc1nn[nH]n1)N1CCN(Cc2cccc(Oc3cccc(C(F)(F)F)c3)c2)CC1 [Example 186, N-2H-Tetrazol-5-yl-4-{3-[3-(trifluoromethyl)phenoxy]benzyl}piperazine-1-carboxamide]
15 | 6.00 | 5.80 | N#Cc1ccc(Oc2cccc(CN3CCN(C(=O)Nc4nn[nH]n4)CC3)c2)cc1 [Example 187, 4-[3-(4-Cyanophenoxy)benzyl]-N-2H-tetrazol-5-ylpiperazine-1-carboxamide]
16 | 7.70 | 7.10 | O=C(Nc1nn[nH]n1)N1CCN(Cc2cccc(Oc3ccc(OCC(F)(F)F)cc3)c2)CC1 [Example 188, N-2H-Tetrazol-5-yl-4-{3-[4-(2,2,2-trifluoroethoxy)phenoxy]benzyl}-piperazine-1-carboxamide]
17 | 7.77 | 7.15 | O=C(Nc1nn[nH]n1)N1CCN(Cc2cccc(Oc3ccc4c(c3)OC(F)(F)O4)c2)CC1 [Example 189, 4-{3-[(2,2-Difluoro-1,3-benzodioxol-5-yl)oxy]benzyl}-N-2H-tetrazol-5-ylpiperazine-1-carboxamide]
18 | 5.43 | 5.52 | O=C(Nc1nn[nH]n1)N1CCN(Cc2cccc(Oc3ccccc3Cl)c2)CC1 [Example 190, 4-[3-(2-Chlorophenoxy)benzyl]-N-2H-tetrazol-5-ylpiperazine-1-carboxamide]
19 | < 5.00 | 5.52 | Cc1cc(NC(=O)N2CCN(Cc3cccc(Oc4ccc(Cl)cc4)c3)CC2)nn1C [Example 191, 4-[3-(4-Chloro-phenoxy)-benzyl]-piperazine-1-carboxylic acid (1,5-dimethyl-1H-pyrazol-3-yl)-amide trifluoroacetic acid salt]
20 | < 5.00 | 5.40 | Cn1cc(Br)c(NC(=O)N2CCN(Cc3cccc(Oc4ccc(Cl)cc4)c3)CC2)n1 [Example 192, 4-[3-(4-Chloro-phenoxy)-benzyl]-piperazine-1-carboxylic acid (4-bromo-1-methyl-1H-pyrazol-3-yl)-amide trifluoroacetic acid salt]
21 | 5.22 | 6.49 | CCn1nccc1NC(=O)N1CCN(Cc2cccc(Oc3ccc(Cl)cc3)c2)CC1 [Example 193, 4-[3-(4-Chloro-phenoxy)-benzyl]-piperazine-1-carboxylic acid (2-ethyl-2H-pyrazol-3-yl)-amide trifluoroacetic acid salt]
22 | 5.40 | 6.66 | Cc1cc(NC(=O)N2CCN(Cc3cccc(Oc4ccc(Cl)cc4)c3)CC2)n[nH]1 [Example 194, 4-[3-(4-Chlorophenoxy)benzyl]-N-(5-methyl-1H-pyrazol-3-yl)piperazine-1-carboxamide]
23 | 6.51 | 6.96 | O=C(Nc1cccnn1)N1CCN(Cc2ccc(Br)c(Br)c2)CC1 [Example 195, 4-(3,4-Dibromobenzyl)-N-pyridazin-3-ylpiperazine-1-carboxamide]
24 | 5.80 | 5.22 | O=C(Nc1cccnn1)N1CCN(Cc2ccc3c(c2)OC(F)(F)O3)CC1 [Example 196, 4-[(2,2-Difluoro-1,3-benzodioxol-5-yl)methyl]-N-pyridazin-3-ylpiperazine-1-carboxamide]
25 | 5.05 | 5.89 | O=C(Nc1cccnn1)N1CCN(Cc2cnc3ccccc3c2)CC1 [Example 197, N-Pyridazin-3-yl-4-(quinolin-3-ylmethyl)piperazine-1-carboxamide]
26 | 5.22 | 6.41 | O=C(Nc1cccnn1)N1CCN(Cc2ccc3ccccc3n2)CC1 [Example 198, N-Pyridazin-3-yl-4-(quinolin-2-ylmethyl)piperazine-1-carboxamide]
27 | 6.23 | 6.55 | O=C(Nc1cccnn1)N1CCN(Cc2ccc(Cl)c(Cl)c2)CC1 [Example 199, 4-(3,4-Dichlorobenzyl)-N-pyridazin-3-ylpiperazine-1-carboxamide]
28 | 6.30 | 7.42 | O=C(Nc1cccnn1)N1CCN(Cc2ccc3ccccc3c2)CC1 [Example 200, 4-(Naphthalen-2-ylmethyl)-N-pyridazin-3-ylpiperazine-1-carboxamide]
29 | < 5.00 | < 5.00 | O=C(Nc1cccnn1)N1CCN(Cc2ccc3[nH]ccc3c2)CC1 [Example 201, 4-(1H-Indol-5-ylmethyl)-N-pyridazin-3-ylpiperazine-1-carboxamide]
